Results as given in the supplement of paper PMC10307832.

Each cell line was assayed with CO[C@@H]1[C@H](N(C)C(=O)c2ccccc2)C[C@H]2O[C@]1(C)n1c3ccccc3c3c4c(c5c6ccccc6n2c5c31)C(=O)NC4 [Midostaurin] + O=C(CCCCCCC(=O)Nc1ccccc1)NO [Vorinostat] (partner 1 µM) (assay: relative viability (nuclei count vs DMSO), 5 days (fraction); higher = more cells survive). Conditions: first compound 0.03162 µM.
How it was run: (§1)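 Cells from lung cancer lines were seeded into 1536-well plates and, one day later, dosed by pin tool. Treatments were either a single drug or a fixed dose of an anchor drug with five library-drug doses (not always all listed) in √10 steps. After 5 days, nuclei were stained in a one-step fixation (final 0.05% Triton X-100, 1% formaldehyde, 1 ug/ml Hoechst) and counted on 4× images, and relative viability is the treated-to-vehicle nuclei ratio, as the median of duplicate plates.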

Row | Cell Line | relative viability
1 | NCI-H596 | 0.645
2 | LK-2 | 0.258
3 | NCI-H2087 | 0.528
4 | SK-MES-1 | 0.968
5 | H3255 | 0.615
6 | COR-L23 | 0.311
7 | COR-L 105 | 0.846
8 | IA-LM | 0.889
9 | LOU-NH91 | 0.882
10 | ChaGo-K-1 | 0.811
11 | NCI-H2170 | 0.843
12 | HCC-44 | 1.06
13 | HCC-78 | 0.438
14 | NCI-H2009 | 0.745
15 | NCI-H661 | 0.72
16 | SK-LU-1 | 0.765
17 | NCI-H2228 | 0.424
18 | NCI-H2023 | 0.78

Same assay, conditions: first compound 0.1 µM

Row | Cell Line | relative viability
19 | NCI-H2342 | 0.836
20 | NCI-H727 | 1.16
21 | NCI-H1650 | 0.585
22 | NCI-H1993 | 0.87
23 | SW 1573 | 0.732
24 | NCI-H838 | 0.606
25 | LCLC-103H | 0.806
26 | NCI-H520 | 0.694
27 | NCI-H2126 | 0.866
28 | EMC-BAC-2 | 0.407
29 | NCI-H2085 | 0.822
30 | HCC-366 | 0.308
31 | NCI-H1666 | 1.02
32 | NCI-H596 | 0.625
33 | LK-2 | 0.328
34 | NCI-H2087 | 0.462

Row | Cell Line | relative viability
35 | SK-MES-1 | 0.982
36 | H3255 | 0.765
37 | COR-L23 | 0.276
38 | COR-L 105 | 0.702
39 | IA-LM | 0.943
40 | LOU-NH91 | 0.947
41 | ChaGo-K-1 | 0.619
42 | NCI-H2170 | 0.774
43 | HCC-44 | 1.11
44 | HCC-78 | 0.365
45 | NCI-H2009 | 0.703
46 | NCI-H661 | 0.792
47 | SK-LU-1 | 0.685
48 | NCI-H2228 | 0.716
49 | NCI-H2023 | 0.5

Same assay, conditions: first compound 0.3162 µM

Row | Cell Line | relative viability
50 | NCI-H2342 | 0.831
51 | NCI-H727 | 1.26
52 | NCI-H1650 | 0.793
53 | NCI-H1993 | 0.38
54 | SW 1573 | 1.02
55 | NCI-H838 | 0.262
56 | LCLC-103H | 0.792
57 | NCI-H520 | 0.412
58 | NCI-H2126 | 0.831
59 | EMC-BAC-2 | 0.476
60 | NCI-H2085 | 0.637
61 | HCC-366 | 0.0688
62 | NCI-H1666 | 0.999
63 | NCI-H596 | 0.877
64 | LK-2 | 0.277
65 | NCI-H2087 | 0.429

Row | Cell Line | relative viability
66 | NCI-H1648 | 0.497
67 | SK-MES-1 | 1.08
68 | H3255 | 0.744
69 | COR-L23 | 0.205
70 | COR-L 105 | 0.535
71 | IA-LM | 0.907
72 | LOU-NH91 | 0.983
73 | ChaGo-K-1 | 0.714
74 | NCI-H2170 | 0.699
75 | HCC-44 | 1.16
76 | HCC-78 | 0.312
77 | NCI-H2009 | 0.657
78 | NCI-H661 | 0.739
79 | SK-LU-1 | 0.47
80 | NCI-H2228 | 0.356
81 | NCI-H2023 | 0.146

What follows are cell lines tested with CO[C@@H]1[C@H](N(C)C(=O)c2ccccc2)C[C@H]2O[C@]1(C)n1c3ccccc3c3c4c(c5c6ccccc6n2c5c31)C(=O)NC4 [Midostaurin] + Cc1nc(Nc2ncc(C(=O)Nc3c(C)cccc3Cl)s2)cc(N2CCN(CCO)CC2)n1 [Dasatinib] (partner 0.075 µM) in the same assay as above. Conditions: first compound 0.01 µM.
How it was run: as §1

Row | Cell Line | relative viability
82 | NCI-H2342 | 0.332
83 | NCI-H1623 | 0.53
84 | NCI-H727 | 0.363
85 | NCI-H1650 | 0.336
86 | NCI-H1993 | 0.65
87 | SW 1573 | 0.534
88 | NCI-H838 | 0.237
89 | LCLC-103H | 0.545
90 | NCI-H520 | 0.176
91 | NCI-H2126 | 0.623
92 | EMC-BAC-2 | 0.358
93 | NCI-H2085 | 0.29
94 | HCC-366 | 0.634
95 | NCI-H1666 | 0.864
96 | NCI-H596 | 0.661
97 | LK-2 | 0.333

Row | Cell Line | relative viability
98 | NCI-H2087 | 1.03
99 | SK-MES-1 | 0.309
100 | H3255 | 0.346
101 | COR-L23 | 0.436
102 | COR-L 105 | 0.351
103 | LOU-NH91 | 0.594
104 | ChaGo-K-1 | 0.509
105 | NCI-H2170 | 0.572
106 | HCC-78 | 0.375
107 | NCI-H2009 | 0.33
108 | NCI-H661 | 0.882
109 | SK-LU-1 | 0.198
110 | NCI-H2228 | 0.501
111 | NCI-H1792 | 0.793
112 | NCI-H2023 | 0.585
113 | NCI-H1563 | 0.402

Same assay, conditions: first compound 0.03162 µM

Row | Cell Line | relative viability
114 | NCI-H2342 | 0.305
115 | NCI-H1623 | 0.594
116 | NCI-H727 | 0.41
117 | NCI-H1650 | 0.34
118 | NCI-H1993 | 0.608
119 | SW 1573 | 0.548
120 | NCI-H838 | 0.282
121 | LCLC-103H | 0.456
122 | NCI-H520 | 0.178
123 | NCI-H2126 | 0.502
124 | EMC-BAC-2 | 0.372
125 | NCI-H2085 | 0.273
126 | HCC-366 | 0.583
127 | NCI-H1666 | 0.709
128 | NCI-H596 | 0.662
129 | LK-2 | 0.251

Row | Cell Line | relative viability
130 | NCI-H2087 | 0.757
131 | SK-MES-1 | 0.36
132 | H3255 | 0.29
133 | COR-L23 | 0.455
134 | COR-L 105 | 0.396
135 | LOU-NH91 | 0.534
136 | ChaGo-K-1 | 0.584
137 | NCI-H2170 | 0.55
138 | HCC-78 | 0.371
139 | NCI-H2009 | 0.268
140 | NCI-H661 | 0.806
141 | SK-LU-1 | 0.191
142 | NCI-H2228 | 0.622
143 | NCI-H1792 | 0.779
144 | NCI-H2023 | 0.691
145 | NCI-H1563 | 0.469

Same assay, conditions: first compound 0.1 µM

Row | Cell Line | relative viability
146 | NCI-H2342 | 0.319
147 | NCI-H1623 | 0.507
